{"source": "paper PMC11830387", "about": "“KIRA6 is an Effective and Versatile Mast Cell Inhibitor of IgE‐mediated Activation” (European Journal of Immunology, 2024)", "key": {"LYN [1]": {"molecular_target": "T1, LYN (Homo sapiens, UniProt P07948)", "T1 construct": "recombinant human active protein kinase LYN (ProQinase, #0358-0000-1)", "T1 sequence (P07948 2-512)": "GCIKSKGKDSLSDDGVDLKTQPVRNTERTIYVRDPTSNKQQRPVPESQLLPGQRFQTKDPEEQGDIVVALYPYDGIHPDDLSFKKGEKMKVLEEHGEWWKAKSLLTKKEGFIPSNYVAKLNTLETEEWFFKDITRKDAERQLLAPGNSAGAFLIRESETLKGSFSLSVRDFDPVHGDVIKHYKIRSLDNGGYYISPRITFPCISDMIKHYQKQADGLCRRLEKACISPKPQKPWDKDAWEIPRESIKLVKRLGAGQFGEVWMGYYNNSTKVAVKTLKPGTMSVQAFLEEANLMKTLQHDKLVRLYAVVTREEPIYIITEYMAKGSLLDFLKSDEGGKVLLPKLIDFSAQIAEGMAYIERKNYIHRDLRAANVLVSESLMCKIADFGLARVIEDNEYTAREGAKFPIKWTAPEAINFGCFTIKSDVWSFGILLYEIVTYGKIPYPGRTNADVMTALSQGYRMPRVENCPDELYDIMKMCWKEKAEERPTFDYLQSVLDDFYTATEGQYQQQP", "experiment": "MicroScale thermophoresis, supported by nanoDSF thermal shift", "type": "binding"}, "LYN [2]": {"molecular_target": "T2, LYN (Mus musculus, UniProt P25911)", "T2 construct": "LYN immunoprecipitated from unstimulated BMMCs", "T2 sequence (P25911 2-512)": "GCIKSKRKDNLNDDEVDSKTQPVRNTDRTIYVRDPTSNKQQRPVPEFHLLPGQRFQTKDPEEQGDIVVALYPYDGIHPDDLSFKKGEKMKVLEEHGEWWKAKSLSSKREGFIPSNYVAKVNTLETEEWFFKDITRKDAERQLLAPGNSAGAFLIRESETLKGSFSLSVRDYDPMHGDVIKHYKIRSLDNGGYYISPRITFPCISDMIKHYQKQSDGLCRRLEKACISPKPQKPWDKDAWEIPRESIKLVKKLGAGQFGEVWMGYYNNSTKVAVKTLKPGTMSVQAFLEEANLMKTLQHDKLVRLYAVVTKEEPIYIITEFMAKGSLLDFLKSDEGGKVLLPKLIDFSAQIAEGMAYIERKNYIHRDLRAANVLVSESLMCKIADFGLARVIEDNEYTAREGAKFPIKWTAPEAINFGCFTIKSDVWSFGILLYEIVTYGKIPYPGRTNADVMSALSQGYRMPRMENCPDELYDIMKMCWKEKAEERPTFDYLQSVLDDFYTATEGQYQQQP", "experiment": "in vitro kinase assay with immunoprecipitated LYN and GST-SH3P7 substrate", "type": "biochemical"}, "FYN": {"molecular_target": "T3, FYN (Homo sapiens, UniProt P06241)", "T3 construct": "recombinant human active protein kinase FYN (ProQinase, #0352-0000-1)", "T3 sequence (P06241 2-537)": "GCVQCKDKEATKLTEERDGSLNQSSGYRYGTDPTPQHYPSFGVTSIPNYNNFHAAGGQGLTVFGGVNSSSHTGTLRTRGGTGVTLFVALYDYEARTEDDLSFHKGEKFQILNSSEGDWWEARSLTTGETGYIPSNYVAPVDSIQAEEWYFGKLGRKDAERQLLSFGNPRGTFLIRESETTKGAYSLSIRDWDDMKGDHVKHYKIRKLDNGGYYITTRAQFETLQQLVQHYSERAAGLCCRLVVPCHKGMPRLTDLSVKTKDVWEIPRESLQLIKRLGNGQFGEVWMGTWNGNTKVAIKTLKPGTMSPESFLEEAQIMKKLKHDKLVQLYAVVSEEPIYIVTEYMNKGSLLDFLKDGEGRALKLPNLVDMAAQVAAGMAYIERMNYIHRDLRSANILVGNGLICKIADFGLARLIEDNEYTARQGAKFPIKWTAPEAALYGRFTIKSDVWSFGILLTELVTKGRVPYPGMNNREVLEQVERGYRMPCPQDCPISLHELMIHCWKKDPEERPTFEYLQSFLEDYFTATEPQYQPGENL", "experiment": "MicroScale thermophoresis, supported by nanoDSF", "type": "binding"}}, "data": [{"smiles": "CC(C)(C)c1nc(-c2ccc(NC(=O)Nc3cccc(C(F)(F)F)c3)c3ccccc23)c2c(N)nccn12", "note": "[KIRA6]", "values": [{"measurement": "Kd", "setting": "LYN [1]", "value": "3.2 ± 1.2", "unit": "µM"}, {"measurement": "IC50", "setting": "LYN [2]", "value": "~0.3", "unit": "µM"}, {"measurement": "Kd", "setting": "FYN", "value": "8.4 ± 2.6", "unit": "µM"}]}]}
